{"source": "patent US10487362B2", "about": "“Methods for diagnosing cancer based on small nucleolar RNA HBII-52” (Health Research, Inc., priority 2013, dated 2019)", "key": {"[1]": {"tested_on": "Human Prostate cancer cell lines", "assay": "Cell viability of human prostate cancer cell lines treated for 72 h", "type": "cell-based", "conditions": "72 h treatment, 3 independent experiments", "experimental": "FIG. 11. Human Prostate cancer cell lines were treated with SB 242,084 for 72 h. […] Data is the average of 3 independent experiments with error bars indicating SEM.\n(§1) Our tests indicate that SB 242,084 is growth-inhibitory in human PCa cell lines (FIG. 11)."}, "[2]": {"tested_on": "PC3 cells", "assay": "Growth inhibition under serum starvation, PC3", "type": "cell-based, human", "conditions": "PC3, serum starvation vs serum", "source_text": "(§2) FIG. 12. […] Data is representative of multiple independent experiments.\nas §1"}, "[3]": {"tested_on": "Erk", "conditions": "cited from earlier work"}, "[4]": {"conditions": "compared with SB206,553; cited from earlier work"}, "[5]": {"target": "T1, 5-HT2cR (Homo sapiens, UniProt P28335)", "T1 sequence (P28335 33-458)": "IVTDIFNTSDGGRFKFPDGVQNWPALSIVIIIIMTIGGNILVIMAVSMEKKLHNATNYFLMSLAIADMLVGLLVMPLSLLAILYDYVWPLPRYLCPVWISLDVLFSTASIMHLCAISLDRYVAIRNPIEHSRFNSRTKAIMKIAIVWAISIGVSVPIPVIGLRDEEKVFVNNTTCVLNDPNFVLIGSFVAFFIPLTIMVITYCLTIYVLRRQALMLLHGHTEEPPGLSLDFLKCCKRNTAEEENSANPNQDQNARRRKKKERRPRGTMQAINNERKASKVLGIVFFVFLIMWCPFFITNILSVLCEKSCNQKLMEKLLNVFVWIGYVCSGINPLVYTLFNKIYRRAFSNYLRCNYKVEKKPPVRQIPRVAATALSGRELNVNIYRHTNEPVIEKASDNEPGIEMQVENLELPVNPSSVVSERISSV", "conditions": "in vitro and in vivo; cited from earlier work"}, "[6]": {"tested_on": "TRAMP-C2G cells", "assay": "Cell viability of TRAMP-C2G stable cell lines (Cell-Titer Fluor, 72 h growth assay)", "type": "cell-based, mouse", "conditions": "72 h culture; for influence on the effect of MBII-52 or SB 242,084 on cell viability: TRAMP-C2G cells", "experimental": "FIG. 10. MBII-52 was stably overexpressed (>60-fold overexpression) in TRAMP-C2G cells from the pSilencer CMV 4.1 vector. Cell viability was measured (n=5, error bars are SEM) after 72 h culture using Cell-Titer Fluor cell viability assay and normalized to scramble-transfected, vehicle-treated control. One-sample t-tests were performed to compare experimental groups with scramble/vehicle control. Two-tailed t-tests were used to compare the two SB 242,084 treatment groups with each other. * indicated p<0.05 for either test. MBII-52 increases cell viability, while SB 242,084 inhibits it.\nTo test the hypothesis that HB/MBII-52 can activate 5-HT2cR and promote cancer progression stable cell lines were generated from TRAMP C2D and C2G cells that overexpress MBII-52 from pSilencer 4.1 CMV vector along with control cells expressing a scrambled RNA that has no homology to the mouse or human genome.\nNumerous downstream pathways activated by 5-HT2cR have been studied in neuronal cell lines with a focus on neurological development and disease. The pathways relevant to this disclosure are Erk, PI3-K/Akt and RhoA (36,39). Each has previously been studied and targeted in PCa and other cancers. Activation of these pathways during PCa progression or in vitro can directly propagate a transition to malignancy. For example, Erk upregulates hypoxia inducible factor 1 alpha (HIF1α) and therefore vascular endothelial growth factor (Vegf) in response to hypoxia in rats (40). Vegf secretion also appears to be regulated by Erk in LNCaP cell lines (41). Erk is also able to transactivate the androgen receptor (AR) independent of androgen, by phosphorylating steroid receptor co-activator-1 (SRC-1), which then binds AR resulting in ligand-independent activation of AR. Therefore, Erk directly contributes to androgen-independence (41). […] Indeed, stable cell lines overexpressing MBII-52 appeared more proliferative then scramble control stable cell lines in a 72 h growth assay, after which viability was measured using Cell-Titer Fluor Assay (n=5) (FIG. 10)."}, "[7]": {"tested_on": "LNCaP-C4-2 cells", "assay": "Growth inhibition under serum starvation, LNCaP-C4-2", "type": "cell-based, human", "conditions": "LNCaP-C4-2, serum starvation vs serum", "source_text": "as §2, §1"}, "[8]": {"target": "T1, 5-HT2cR", "conditions": "cited from earlier work"}, "[9]": {"tested_on": "MBII-52", "conditions": "C2G cells, serum starvation 72 h, DHT supplementation", "source_text": "Serum starvation induces NED of PCa cell lines (25). […] Furthermore, NED is associated with CR-PCa in vivo, supporting the importance of factors that induce NED as initiators of transition to androgen-independence (26)."}, "[10]": {"tested_on": "DU145 clones DU6 and DU2", "assay": "Cell viability of DU145 HBII-52 clones in response to 5-HT", "type": "cell-based, human", "conditions": "high concentrations; HBII-52 overexpressing DU6 compared to low expressing DU2; 3 independent experiments", "source_text": "FIG. 17. Overexpression of HBII-52 affects cell viability in response to 5-HT treatment. […] Data are represented as the average+/−SEM of 3 independent experiments"}}, "note": "“Also recorded” adds a separate entry of the source.", "data": [{"smiles": "Cc1cc2c(cc1Cl)N(C(=O)Nc1ccc(Oc3cccnc3C)nc1)CC2", "note": "[SB 242,084]", "values": [{"measurement": "cell viability / growth inhibition", "setting": "[1]", "result": "dose-dependent decrease in cell viability levels; also recorded: growth-inhibitory"}, {"measurement": "growth inhibition upon serum starvation", "setting": "[2]", "result": "significantly (p<0.05) further improved"}, {"measurement": "activation of downstream targets including Erk", "setting": "[3]", "result": "inhibits activation"}, {"measurement": "resistance to metabolic methylation", "setting": "[4]", "result": "more resistant to the metabolic methylation than SB206,553"}, {"measurement": "antagonist activity", "setting": "[5]", "result": "potent antagonist activity"}, {"measurement": "cell viability", "setting": "[6]; scramble and MBII-52 overexpressing TRAMP-C2G cells, n=5", "result": "inhibits; also recorded: effective in both scramble and MBII-52 overexpressing cells"}, {"measurement": "growth inhibition upon serum starvation", "setting": "[7]", "result": "significantly (p<0.05) further improved"}, {"measurement": "potency relative to SB 206,553", "setting": "[8]", "result": "increased potency"}, {"measurement": "selectivity for 5-HT2cR over 5-HT2aR", "setting": "[8]", "result": "greater than 100 fold"}, {"measurement": "selectivity for 5-HT2cR over 5-HT2bR", "setting": "[8]", "result": "greater than 100 fold"}]}, {"smiles": "C[C@]12CCC(=O)C[C@@H]1CC[C@@H]1[C@@H]2CC[C@]2(C)[C@@H](O)CC[C@@H]12", "note": "[DHT, 5α-dihydrotestosterone]", "values": [{"measurement": "influence on the effect of MBII-52 or SB 242,084 on cell viability", "setting": "[6]", "result": "Neither DHT nor 5-HT appear to have much influence"}, {"measurement": "MBII-52 expression increase caused by serum starvation", "setting": "[9]", "result": "almost completely block the increase in MBII-52; also recorded: abrogates the observed upregulation of MBII-52"}]}, {"smiles": "NCCc1c[nH]c2ccc(O)cc12", "note": "[5-HT, serotonin]", "values": [{"measurement": "cytotoxic response (cell viability)", "setting": "[10]", "result": "increased cytotoxic response"}, {"measurement": "influence on the effect of MBII-52 or SB 242,084 on cell viability", "setting": "[6]", "result": "Neither DHT nor 5-HT appear to have much influence"}]}]}
